From patent publication US20210161913A1, “OXYGENATED CHOLESTEROL SULFATES FOR THERAPY OF DISORDERS CAUSED BY AT LEAST ONE OF ATTENUATED LEPTIN ACTIVITY AND A LIPID STORAGE DISORDER” (Virginia Commonwealth University, priority 2015, published 2021)

Experiments:
[1] = test system: leptin-deficient (obese fa/fa) Zucker rats; experiment: Serum lipid levels in leptin-deficient (obese fa/fa) Zucker rats after 25HC3S administration; assay type: in vivo, rat
From the text: To examine the effect of 25HC3S on lipid accumulation in sera and in the liver in a leptin-deficient (obese fa/fa) animal model (Zucker rats), 11 week old Zucker rats (Charles River, Wilmington, Mass.) were randomly assigned into four groups. Obese fa/fa Zucker rats have a defective leptin receptor and serve as a general animal model for deficiencies in leptin activity, whether due to low leptin levels, congenital defects in the leptin receptor or acquired leptin resistance, since all result in inadequate or faulty leptin activity. Further, these animals develop unwanted lipid accumulation after several weeks of life due to a genetic mutation in the leptin receptor. All rats were housed under identical conditions with a 12-hour light/12-hour dark cycle and given free access to water and food. The rats (n=5 in each treatment) were gavaged orally with vehicle (10% cellulose) or 25HC3S (10 mg/kg, 30 mg/kg, and 100 mg/kg) once a day for 21 days and fasted overnight (14 hrs) before collection of samples. To compare with gavage administration, other rats (n=10-17 in each treatment) were intraperitoneally injected with vehicle solution (ethanol/PBS; vehicle) or 25HC3S (50 mg/kg) once every three days for 6 weeks and fasted overnight (14 hrs). Blood samples were collected before sacrifice. Serum triglyceride (TG), total cholesterol (CHOL), high density lipoprotein-cholesterol (HDL-C), alkaline phosphatase (ALK), alanine aminotransferase (ALT), and aspartate aminotransferase (AST) were measured using standard enzymatic techniques. Lipoprotein profiles in sera were analyzed by HPLC in the following descriptions. The lipoproteins, triglycerides and cholesterol in very low density lipoprotein (VLDL), low-density lipoprotein (LDL) and high-density lipoprotein (HDL) were measured by gel filtration using HPLC as previously described (Bai et al., 2012). Briefly, rat serum (100 μl) was eluted with a solvent of 154 mM NaCl with 0.1 mM EDTA (pH 8.0) at a flow rate of 0.2 ml/min via a Pharmacia Superose 6 HR 10/30 FPLC column, and the signal was read at a wavelength of 280 nm. Fractions were collected for 1.2 min each from 20 min up to 100 min. 180 μl of each fraction plus 20 μl of a 10× solution of Wako Total Cholesterol E Reagent (Wako Chemicals USA, Richmond, Va.) was incubated in a 96-well plate at 37° C. for 3 hrs in the dark to analyze cholesterol levels, and the absorbance was read at a wavelength of 595 nm. 2 μl of each fraction plus 200 μl of Infinity™ Triglycerides Reagent (Fisher Scientific, Pittsburgh, Pa.) was incubated in a 96-well plate at 37° C. for 5 minutes in dark to analyze triglyceride levels, and the absorbance was read at a wavelength of 500 nm. The lipoprotein profile was monitored as an internal control.

[2] = test system: leptin-deficient (obese fa/fa) Zucker rats; experiment: Quantification of hepatic lipids in Zucker rats; assay type: in vivo, rat; settings: 21 days
From the text: (§1) To examine the effect of 25HC3S on lipid accumulation in sera and in the liver in a leptin-deficient (obese fa/fa) animal model (Zucker rats), 11 week old Zucker rats (Charles River, Wilmington, Mass.) were randomly assigned into four groups. Obese fa/fa Zucker rats have a defective leptin receptor and serve as a general animal model for deficiencies in leptin activity, whether due to low leptin levels, congenital defects in the leptin receptor or acquired leptin resistance, since all result in inadequate or faulty leptin activity. Further, these animals develop unwanted lipid accumulation after several weeks of life due to a genetic mutation in the leptin receptor. All rats were housed under identical conditions with a 12-hour light/12-hour dark cycle and given free access to water and food. The rats (n=5 in each treatment) were gavaged orally with vehicle (10% cellulose) or 25HC3S (10 mg/kg, 30 mg/kg, and 100 mg/kg) once a day for 21 days and fasted overnight (14 hrs) before collection of samples. To compare with gavage administration, other rats (n=10-17 in each treatment) were intraperitoneally injected with vehicle solution (ethanol/PBS; vehicle) or 25HC3S (50 mg/kg) once every three days for 6 weeks and fasted overnight (14 hrs). Blood samples were collected before sacrifice. Serum triglyceride (TG), total cholesterol (CHOL), high density lipoprotein-cholesterol (HDL-C), alkaline phosphatase (ALK), alanine aminotransferase (ALT), and aspartate aminotransferase (AST) were measured using standard enzymatic techniques. Lipoprotein profiles in sera were analyzed by HPLC in the following descriptions.
Liver tissues were homogenized, and the hepatic total lipids were extracted using a mixture of chloroform and methanol (2:1, v:v). After the extracts were filtered, 0.2 ml of each was evaporated to dryness and dissolved in 100 μl of isopropanol containing 10% Triton™ X-100 for cholesterol assay (Wako Chemicals USA, Richmond, Va.), 100 μl of NEFA solution (0.5 g of EDTA-Naz, 2 g of Triton™ X-100, 0.76 ml of 1N NaOH, and 0.5 g of sodium azide/1, pH 6.5) for the free fatty acid assay (Wako Chemicals USA, Richmond, Va.), or 100 μl of isopropanol only for the triglyceride assay (Fisher Scientific, Pittsburgh, Pa.). Each lipid concentration was normalized by liver weight.

[3] = test system: leptin-deficient (obese fa/fa) Zucker rats; experiment: Liver histo-morphology (HE and Oil Red O staining), hepatic lipidosis in Zucker rats; assay type: in vivo, rat; set-up: key to Force Rank (Oil Red O): 1 = least severe; 5 = most severe; settings: for Force Rank (Oil Red O) / Severity of Hepatic Lipidosis: N = 5 males
From the text: as §1, with “descriptions. Three specimens from different regions of the liver of each rat were collected and fixed in 4% paraformaldehyde in 0.1 M phosphate buffer at room temperature overnight. The regions of the specimens were standardized for all rats. The paraffin-embedded tissue sections (4 μm) were stained with hematoxylin and eosin (HE). 3-3′-Diaminobenzidine (DAB) was used as the chromogen, and hematoxylin was used as the nuclear counterstain. Determination of total intracellular lipids: Oil Red O staining of intracellular neutral lipids: the liver slides were fixed with 3.7% formaldehyde in PBS for 30 min followed by two washes with phosphate-buffered saline (PBS). The cells were stained with 0.2% Oil Red O in 60% 2-propanol for 10 min and washed three times with PBS. The images were taken with the use of a microscope (Olympus, Tokyo, Japan) equipped with image recorder under 40× lenses. All slides of tissue were qualitatively examined by light microscopy by a board certified veterinary pathologist. The incidence and severity of the lesions were scored. Lesions were also assessed for duration and distribution.” for “descriptions.”

primary hepatocytes = settings: Ma et al., 2008, Ren et al., 2007, Xu et al., 2010; cited from earlier work
THP-1 macrophages = settings: Ma et al., 2008, Ren et al., 2007, Xu et al., 2010; cited from earlier work
[4] = gavage administration once a day for 21 days, fasted overnight, vs vehicle
[5] = intraperitoneal administration, 50 mg/kg once every three days
[6] = gavage 10 mg/kg, normalized by liver weight

CC(CCCC(C)(C)O)C1CCC2C3CC=C4CC(OS(=O)(=O)O)CCC4(C)C3CCC12C (stereo not shown) [25HC3S, 5-cholesten, 3-, 25-diol, 3-sulfate]
decrease of plasma CHOL [1, 4]: 17%
decrease of plasma TG [1, 4]: 30%
change in HDL levels ([1]; gavage administration, 21 days): no significant change
change in LDL levels ([1]; gavage administration, 21 days): no significant change
serum HDL [1, 5]: significantly decreased
serum total cholesterol [1, 5]: significantly decreased
serum triglyceride [1, 5]: significantly decreased
liver free cholesterol concentration ([2]; administration of 25HC3S): not affected
reduction of liver tissue free fatty acids [2, 6]: 26%
reduction of liver tissue total cholesterol [2, 6]: 25%
reduction of liver tissue triglyceride [2, 6]: 43%
Force Rank (Oil Red O) ([3]; 10 mg/kg/day gavage): 4
Severity of Hepatic Lipidosis ([3]; 10 mg/kg/day gavage): Mild to moderate
Force Rank (Oil Red O) ([3]; 30 mg/kg/day gavage): 3
Severity of Hepatic Lipidosis ([3]; 30 mg/kg/day gavage): Mild to moderate
Force Rank (Oil Red O) ([3]; 50 mg/kg IP every 3 days): 2
Severity of Hepatic Lipidosis ([3]; 50 mg/kg IP every 3 days): Mild
Force Rank (Oil Red O) ([3]; 100 mg/kg/day gavage): 1
Severity of Hepatic Lipidosis ([3]; 100 mg/kg/day gavage): Mild
lipid inclusions in hepatocytes (HE stained liver sections) ([3]; 10, 30 and 100 mg/kg PO (FIGS. 3B, C, D) vs control rats): significantly decreased
lipid accumulation (primary hepatocytes): reduce lipid accumulation
lipid accumulation (THP-1 macrophages): reduce lipid accumulation
